# Experimental data published in patent US11883422B2, “Glycan therapeutic compositions and related methods thereof” (DSM Nutritional Products, LLC, priority 2015, dated 2024).
# Tested on: colonic propulsion in morphine-treated mice
# Experiment: Mouse model of opioid-induced constipation: colonic propulsion (bead expulsion) after morphine
# Format: in vivo
# Description: This study was conducted to analyze the effects of glycan therapeutics in a mouse model of opioid-induced constipation. In this model, normal mice are dosed with glycan or control for several days and then administered a dose of morphine sufficient to produce decreased gastrointestinal (GI) transit and colonic propulsion (Coates et al. 2006 Neurogastroenterol Motil 18:464-471). In humans, morphine and related opiate drugs are known to cause constipation. They act on neurons in the myenteric plexus as mu-opioid receptor agonists, leading to decreased GI motility and propulsion. The proportion of the US adult population who take opiates chronically (non-cancer patients), is roughly 4%. In an observational study of patients on opiates for chronic pain, 47% experienced constipation (Tuteja et al. […] Neurogastroenterol Motil 22: 424-430). There is evidence that chronic constipation can predispose individuals to benign GI neoplasms and colorectal cancer. […]
# Several drug toxicities affecting GI motility (e.g. causing constipation or diarrhea) in cancer are also related to or associated with other immune imbalances and nutritional imbalances. […] Colonic propulsion was assessed as follows: thirty minutes post morphine dosing, a 3 mm glass bead was inserted at a depth of 2 cm into the distal colon through each mouse's anus. […]
smiles,measurement,setting,value
C=CCN1CC[C@]23c4c5ccc(O)c4O[C@H]2C(=O)CC[C@@]3(O)[C@H]1C5 [naloxone],"responders (reduction in expulsion of >25% of maximum expulsion time, 1350 seconds)","1% in drinking water for 11 days (naloxone 30 minutes prior to morphine), morphine 3 mg/kg subcutaneously",6/8
same,effect in this mouse model of colonic propulsion,"third analysis, responder versus non-responder animals, cutoff 1800 seconds",reversing the effects of morphine
